Source: patent publication US8507411B2, “Neoglycorandomization and digitoxin analogs” (priority 2004, dated 2013)
Where two headings read alike, the source gives them in different places.

What was measured:
Hep3B = assay: High-throughput calcein AM cytotoxicity assay, Hep3B; format: cell-based, human; conditions: Hep 3B cells
Description: (§1) Standard errors are depicted with error bars.

HCT-116 = assay: High-throughput calcein AM cytotoxicity assay, HCT-116; format: cell-based, human; conditions: HCT-116 cells
Description: as §1

NCI-H460 = assay: High-throughput calcein AM cytotoxicity assay, NCI-H460; format: cell-based, human; conditions: NCI-H460 cells
Description: as §1

MCF7 = assay: High-throughput calcein AM cytotoxicity assay, MCF7; format: cell-based, human; conditions: MCF7 cells
Description: as §1

Du145 = assay: High-throughput calcein AM cytotoxicity assay, Du145; format: cell-based, human; conditions: Du145 cells
Description: as §1

NCI/ADR-RES = assay: cells; format: cell-based, human; conditions: NCI/ADR-RES cells
Outline: (§2)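 Compounds were tested at five concentrations in two-fold steps against attached cells and incubated for 72 h. Live cells were then quantified by calcein fluorescence after a 30 min calcein AM loading at 37 °C. Percent inhibition versus log concentration was fitted to a four-parameter logistic model.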

SF-268 = assay: cells; format: cell-based, human; conditions: SF-268 cells
Outline: as §2

SK-OV-3 = assay: cells; format: cell-based, human; conditions: SK-OV-3 cells
Outline: as §2

NmuMG = assay: cells; format: cell-based, mouse
Outline: as §2

A549 = assay: High-throughput calcein AM cytotoxicity assay, A549; format: cell-based, human; conditions: A549 cells
Description: as §1

[1] = NmuMG mouse mammary normal epithelial control line, read-out: IC50, NmuMG
[2] = NmuMG cells (mouse mammary normal epithelial control line), read-out: IC50

| Compound | IC50 (Hep3B; read-out: IC50, Hep 3B) | IC50 (HCT-116; read-out: IC50, HCT-116) | IC50 (NCI-H460; read-out: IC50, NCI-H460) | IC50 (MCF7; read-out: IC50, MCF7) | IC50 (Du145; read-out: IC50, Du145) | IC50 (NCI/ADR-RES; read-out: IC50, NCI/ADR-RES) | IC50 (SF-268; read-out: IC50, SF-268) | IC50 (SK-OV-3; read-out: IC50, SK-OV-3) | IC50 (NmuMG; [1]) | IC50 (A549; read-out: IC50, A549) | IC50 (Hep3B; read-out: IC50) | IC50 (HCT-116; read-out: IC50) | IC50 (NCI-H460; read-out: IC50) | IC50 (MCF7; read-out: IC50) | IC50 (Du145; read-out: IC50) | IC50 (NCI/ADR-RES; read-out: IC50) | IC50 (SF-268; read-out: IC50) | IC50 (SK-OV-3; read-out: IC50) | IC50 (NmuMG; [2]) | IC50 (A549; read-out: IC50) |
| --- | --- | --- | --- | --- | --- | --- | --- | --- | --- | --- | --- | --- | --- | --- | --- | --- | --- | --- | --- | --- |
| CON(C1CCC2(C)C(CCC3C2CCC2(C)C(C4=CC(=O)OC4)CCC32O)C1)C1CC(O)C(O)C(CO)O1 [9α, 2-deoxy-D-galactoside] | > 25000 nM | > 25000 nM | > 25000 nM | > 25000 nM | > 25000 nM | > 25000 nM | > 25000 nM | > 25000 nM | > 25000 nM | > 25000 nM | – | – | – | – | – | – | – | – | – | – |
| CON(C1CCC2(C)C(CCC3C2CCC2(C)C(C4=CC(=O)OC4)CCC32O)C1)C1OC(C(=O)O)C(O)C(O)C1O [38α, D-galacturonoside] | – | – | – | – | – | – | – | – | – | – | > 25000 nM | > 25000 nM | > 25000 nM | > 25000 nM | > 25000 nM | > 25000 nM | > 25000 nM | > 25000 nM | > 25000 nM | > 25000 nM |
| CON(C1CCC2(C)C(CCC3C2CCC2(C)C(C4=CC(=O)OC4)CCC32O)C1)C1OC(COC2OC(CO)C(O)C(O)C2O)C(O)C(O)C1O (stereo not drawn) [35α, melibioside] | – | – | – | – | – | – | – | – | – | – | > 25000 nM | > 25000 nM | > 25000 nM | > 25000 nM | > 25000 nM | > 25000 nM | > 25000 nM | > 25000 nM | > 25000 nM | > 25000 nM |
| CON([C@H]1CC[C@@]2(C)[C@H](CC[C@@H]3[C@@H]2CC[C@]2(C)[C@@H](C4=CC(=O)OC4)CC[C@]32O)C1)[C@@H]1O[C@H](CO)[C@@H](O)[C@@H](O)[C@@H]1O [20β, D-altroside] | 350 nM | 1100 nM | 620 nM | 1500 nM | 1200 nM | 900 nM | 1100 nM | 1100 nM | 900 nM | 540 nM | – | – | – | – | – | – | – | – | – | – |
| C[C@]12CC[C@H](O[C@@H]3O[C@H](CO)[C@@H](O)[C@H](O)[C@H]3O)C[C@H]1CC[C@@H]1[C@@H]2CC[C@]2(C)[C@@H](C3=CC(=O)OC3)CC[C@]12O [43β, O-D-glucoside] | 210 nM | 600 nM | 390 nM | 700 nM | 220 nM | 190 nM | 220 nM | 400 nM | > 25000 nM | 290 nM | – | – | – | – | – | – | – | – | – | – |
| CON(C1CCC2(C)C(CCC3C2CCC2(C)C(C4=CC(=O)OC4)CCC32O)C1)C1OCC(O)C(O)C1O [32α, L-arabinoside] | – | – | – | – | – | – | – | – | – | – | > 25000 nM | > 25000 nM | > 25000 nM | > 25000 nM | > 25000 nM | > 25000 nM | > 25000 nM | > 25000 nM | > 25000 nM | > 25000 nM |
| CON(C1CCC2(C)C(CCC3C2CCC2(C)C(C4=CC(=O)OC4)CCC32O)C1)C1OC(CO)C(O)C(O)C1O [39β, L-taloside] | 960 nM | 2300 nM | 1100 nM | 1800 nM | 760 nM | 1000 nM | 1400 nM | 1500 nM | 500 nM | 890 nM | – | – | – | – | – | – | – | – | – | – |
| CON(C1CCC2(C)C(CCC3C2CCC2(C)C(C4=CC(=O)OC4)CCC32O)C1)C1OC(CO)C(O)C(O)C1O [29α, D-idoside] | > 25000 nM | > 25000 nM | > 25000 nM | > 25000 nM | > 25000 nM | > 25000 nM | > 25000 nM | > 25000 nM | – | > 25000 nM | – | – | – | – | – | – | – | – | > 25000 nM | – |
| CON(C1CCC2(C)C(CCC3C2CCC2(C)C(C4=CC(=O)OC4)CCC32O)C1)C1OC(CO)C(O)C(O)C1O [40α, D-taloside] | – | – | – | – | – | – | – | – | – | – | > 25000 nM | > 25000 nM | > 25000 nM | > 25000 nM | > 25000 nM | > 25000 nM | > 25000 nM | > 25000 nM | > 25000 nM | > 25000 nM |
| CON([C@H]1CC[C@@]2(C)[C@H](CC[C@@H]3[C@@H]2CC[C@]2(C)[C@@H](C4=CC(=O)OC4)CC[C@]32O)C1)[C@H]1OC[C@H](O)[C@@H](O)[C@H]1O [14β, L-lyxoside] | 600 nM | 8000 nM | 5000 nM | 4500 nM | 2400 nM | 730 nM | 1100 nM | 4200 nM | 900 nM | 700 nM | – | – | – | – | – | – | – | – | – | – |
| CON(C1CCC2(C)C(CCC3C2CCC2(C)C(C4=CC(=O)OC4)CCC32O)C1)C1OC(CO)C(O)C(O)C1O [42α, L-glucoside] | – | – | – | – | – | – | – | – | – | – | > 25000 nM | > 25000 nM | > 25000 nM | > 25000 nM | > 25000 nM | > 25000 nM | > 25000 nM | > 25000 nM | > 25000 nM | > 25000 nM |
| CON(C1CCC2(C)C(CCC3C2CCC2(C)C(C4=CC(=O)OC4)CCC32O)C1)C1OC(C)C(O)C(O)C1O [11β, 6-deoxy-D-glucoside] | 4400 nM | 2300 nM | 1000 nM | 1900 nM | 6000 nM | 950 nM | 2500 nM | 4000 nM | > 25000 nM | 1200 nM | – | – | – | – | – | – | – | – | – | – |
| CON(C1CCC2(C)C(CCC3C2CCC2(C)C(C4=CC(=O)OC4)CCC32O)C1)C1OC(CO)C(O)C(O)C1O [22α, D-galactoside] | > 25000 nM | > 25000 nM | > 25000 nM | > 25000 nM | > 25000 nM | > 25000 nM | > 25000 nM | > 25000 nM | > 25000 nM | > 25000 nM | – | – | – | – | – | – | – | – | – | – |
| CON([C@H]1CC[C@@]2(C)[C@H](CC[C@@H]3[C@@H]2CC[C@]2(C)[C@@H](C4=CC(=O)OC4)CC[C@]32O)C1)[C@@H]1O[C@H](CO)[C@H](O)[C@H](O)[C@H]1O [22β, D-galactoside] | 600 nM | 1800 nM | 1600 nM | 3000 nM | 1500 nM | 800 nM | 1200 nM | 1500 nM | 1500 nM | 970 nM | – | – | – | – | – | – | – | – | – | – |
| 6-keto-D-galactoside [31α] | > 25000 nM | > 25000 nM | > 25000 nM | > 25000 nM | > 25000 nM | > 25000 nM | > 25000 nM | > 25000 nM | – | > 25000 nM | – | – | – | – | – | – | – | – | > 25000 nM | – |
| CON([C@H]1CC[C@@]2(C)[C@H](CC[C@@H]3[C@@H]2CC[C@]2(C)[C@@H](C4=CC(=O)OC4)CC[C@]32O)C1)[C@@H]1O[C@H](CO)[C@H](O)[C@@H](O)[C@@H]1O [29β, D-idoside] | 300 nM | 2300 nM | 1300 nM | 440 nM | 1300 nM | 1500 nM | 1300 nM | 1500 nM | > 25000 nM | 370 nM | – | – | – | – | – | – | – | – | – | – |
